From patent publication US4801600A, “Aminomethyl oxooxazolidinyl cycloalkylbenzene derivatives useful as antibacterial agents” (E. I. Du Pont de Nemours and Company, priority 1987, dated 1989)
Converted amounts (≈) assume the structure as drawn. Like-named read-outs stand apart in the source and are kept apart here.

Assays:
Staphylococcus aureus [1] = experiment: In vitro broth microdilution MIC, Staphylococcus aureus; assay type: cell-based; conditions: 24-hour MIC, Mueller-Hinton broth, read-out: Minimum Inhibitory Concentration, Staphylococcus aureus
Excerpt: (§1) A standard microdilution method (National Committee for Clinical Standards. Tentative standard M7-T. Standard methods for dilution antimicrobial susceptibility tests for bacteria that grow aerobically. National Committee for Clinical Laboratory Standards, Villanova, PA. 1982) with Mueller-Hinton broth is used to determine the 24-hour minimal inhibitory concentrations (MIC's) for test strains of Staphylococcus aureus and Escherichia coli.

Staphylococcus aureus [2] = experiment: Acute lethal mouse model, intraperitoneal Staphylococcus aureus infection; assay type: in vivo; conditions: 168 h, mice dosed 1 h and 4 h post-infection
Protocol: Determinations of in vivo efficacy are performed by inoculating mice intraperitoneally with cultures of the infecting organism diluted to produce 100% of mortality in control animals within twenty-four hours. The culture of S. aureus used to infect the animals was diluted to the required bacterial density using 5% aqueous hog gastric mucin. The compounds are dissolved or suspended in 0.25% aqueous Methocal® (Methocel®: Hydroxypropyl Methylcellulose, E15 Premium, Dow Chemical Company) for oral administration or sterile distilled water containing 5% dimethylsulfoxide (Fisher Scientific Company, Fairlawn, N.J.) for subcutaneous administration. The mice are dosed at one hour and at four hours post-infection. Mortality is recorded daily until test termination seven days post infection. The number of survivors in each treatment group on the seventh day after infection is used in the calculation of the ED50, the dose of compound that protects 50% of the mice (Litchfield, J. T. and Wildoxon. A simplified method for evaluating dose-effect experiments. J. Pharmacol Exp. Ther., 96:99-113, 1949 ).

Escherichia coli = experiment: In vitro broth microdilution MIC, Escherichia coli; assay type: cell-based; conditions: 24-hour MIC, Mueller-Hinton broth, read-out: Minimum Inhibitory Concentration, Escherichia coli
Excerpt: as §1

[3] = oral, survival at day 7, read-out: ED50, Oral Administration
[4] = sc, subcutaneous, survival at day 7, read-out: ED50, Subcutaneous Administration

Row | Compound | MIC (Staphylococcus aureus [1]) [µg/mL] | ED50 (Staphylococcus aureus [2]; [3]) [mg/kg] | ED50 (Staphylococcus aureus [2]; [4]) [mg/kg] | MIC (Escherichia coli) [µg/mL]
1 | CC(=O)NCC1CN(c2ccc3c(c2)CCC3=NN2CCN(C)CC2)C(=O)O1 (single isomer, unassigned) [Example 18, (l)-N-[3-[1,2-Dihydro-1-(4-methyl-1-piperazinylimino)-1H-inden-5-yl]-2-oxooxazolidin-5-ylmethyl]acetamide] | 8 to 16 (≈ 20.8 to 41.5 µM) | 13.9 | 20.3 | > 128
2 | CC(=O)NCC1CN(c2ccc3c(c2)CCC3=O)C(=O)O1 (single isomer, unassigned) [Example 16, (l)-N-[3-(2,3-Dihydro-1-oxo-1H-inden-5-yl)-2-oxooxazolidin-5-ylmethyl]acetamide] | 2 to 4 (≈ 6.94 to 13.9 µM) | 1.6 | 1.2 | > 128
3 | CC(=O)NCC1CN(c2ccc3c(c2)CCC3O)C(=O)O1 (single isomer, unassigned) [Example 17, (l)-N-[3-(2,3-Dihydro-1-hydroxy-1H-inden-5-yl)-2-oxooxazolidin-5-ylmethyl]acetamide] | 8 (≈ 27.6 µM) | 1.9 | 1.8 | > 128
4 | CC(=O)NCC1CN(c2ccc3c(c2)CCC3)C(=O)O1 (single isomer, unassigned) [Example 1F, (l)-N-[3-(2,3-Dihydro-1H-inden-5-yl)-2-oxooxazolidin-5-ylmethyl]acetamide] | 2 (≈ 7.29 µM) | 2.2 | 1.7 | > 128
